The text below walks through data of patent publication US9957278B2, “Furopyridine compounds for the treatment of hepatitis C” (BRISTOL-MYERS SQUIBB COMPANY, priority 2014, dated 2018).

Structures are written as SMILES. pEC50: −log10 of the molar value. Like-named read-outs stand apart in the source and are kept apart here.

One data set concerns HCV. The conditions noted are these: cited from earlier work.
Data set [1] concerns genotype 1b (Con-1) HCV replicon. The data set can be described thus: HCV Replicon Luciferase Assay (genotype 1b). It counts as cell-based. The conditions noted are these: Hepatitis C virus, 72 h, genotype 1b replicon in Huh-7 cells, Renilla luciferase, 3 days incubation; for pEC50: read-out: EC50 1b (class); for EC50: read-out: EC50 (uM) 1b. How it is done:
The cell lines used to evaluate compounds consist of a human hepatocyte derived cell line (Huh-7) that constitutively expresses a genotype 1b (Con-1) HCV replicon or a genotype 1b (Con-1) HCV replicon with an asparagine replacing the cysteine at amino acid 316, or a genotype 2a (JFH-1) replicon, containing a Renilla luciferase reporter gene. These cells were maintained in Dulbecco's modified Eagle medium (DMEM) containing 10% FBS, 100 U/mL penicillin/streptomycin and 1.0 mg/mL G418.
To evaluate compound efficacy, titrated compounds were transferred to sterile 384-well tissue culture treated plates, and the plates were seeded with HCV replicon cells (50 μL at a density of 2.4×10^3 cells/well) in DMEM containing 4% FBS (final DMSO concentration at 0.5%). After 3 days incubation at 37° C., cells were analyzed for Renilla Luciferase activity using the EnduRen substrate (Promega cat #E6485) according to the manufacturer's directions. Briefly, the EnduRen substrate was diluted in DMEM and then added to the plates to a final concentration of 7.5 μM. The plates were incubated for at least 1 h at 37° C. then read on a Viewlux Imager (PerkinElmer) using a luminescence program. The 50% effective concentration (EC50) was calculated using the four-parameter logistic formula noted above.
Compound EC50 data is expressed as A: <100 nM; B=100-1000 nM; C>1000 nM).
Background: In antiviral work, replicon cells carry a viral genome segment that copies itself.

Take `CNC(=O)c1c(-c2ccc(F)cc2)oc2cc(N(CCO)S(C)(=O)=O)c(C3CC3)cc12` [HCV-796]: the hepatic toxicity result in the data set on HCV (extended dosing of the combination regimens) was “hepatic toxicity observed”. Moreover, the “HCV RNA levels in patients” value in the data set on HCV (patients, single agent transient, more robust with interferon and ribavirin) is “reduce HCV RNA levels”.

`[2H]C([2H])([2H])C(NC(=O)c1cccc(-c2cc3c(C(=O)NC)c(-c4ccc(F)cc4)oc3nc2NCCO)c1)(C([2H])([2H])[2H])C([2H])([2H])[2H]` [Compound 42003]: in data set [1], the negative-log EC50 (pEC50) was more than 7.00 and the 50% effective concentration (EC50) was 0.0144 µM.

With `CNC(=O)c1c(-c2ccc(F)cc2)oc2nc(CCC(F)(F)F)c(-c3cccc(C(=O)NCC(F)(F)C(F)(F)F)c3)cc12` [Compound 20022], in data set [1], the pEC50 was more than 7.00 and the EC50 stood at 0.0059 µM.

With `CNC(=O)c1c(-c2ccc(F)cc2)oc2nc(Cl)c(-c3ccc(OC)c(C(=O)NCC(F)(F)C(F)(F)C(F)(F)F)c3)cc12` [Compound 10001], in data set [1], the pEC50 was 6.00 to 7.00 and the EC50 turned out to be 0.149 µM.

As to `CNC(=O)c1c(-c2ccc(F)cc2)oc2nc(CCC(F)(F)F)c(-c3cccc(C(=O)NCC(C)(C)C)c3)cc12` [Compound 20030], in data set [1], the pEC50 was more than 7.00.

As to `CNC(=O)c1c(-c2ccc(F)cc2)oc2nc(CCC(F)(F)F)c(-c3ccc(F)c(C(=O)NC(C)C(F)(F)F)c3)cc12` (stereo not drawn) [Compound 22001], in data set [1], the negative logarithm of the EC50 (pEC50) was more than 7.00 and the EC50 amounted to 0.0108 µM.

For the compound `C#CC(C)(C)NC(=O)c1cccc(-c2cc3c(C(=O)NC)c(-c4ccc(F)cc4)oc3nc2NCC(F)(F)F)c1` [Compound 30002], in data set [1], the pEC50 was more than 7.00 and the EC50 came out at 0.0037 µM.

Regarding `C#CC(C)(C)NC(=O)c1cc(-c2cc3c(C(=O)NC)c(-c4ccc(F)cc4)oc3nc2NCC(F)(F)C(F)(F)F)ccc1OC` [Compound 41004], in data set [1], the pEC50 was more than 7.00 and the EC50 was 0.0173 µM.

On to `CNC(=O)c1c(-c2ccc(F)cc2)oc2nc(CCC(F)(F)F)c(-c3cccc(C(=O)NC4CCNC4=O)c3)cc12` (stereo not drawn) [Compound 20020], for which, in data set [1], the negative-log EC50 (pEC50) is more than 7.00 and the EC50 came to 0.0519 µM.

For the compound `CNC(=O)c1c(-c2ccc(F)cc2)oc2nc(CCC(F)(F)F)c(-c3cccc(C(=O)NC(C)(C)C(=O)OC)c3)cc12` [Compound 20023], in data set [1], the pEC50 is more than 7.00.

For `CNC(=O)c1c(-c2ccc(F)cc2)oc2nc(NCC(F)(F)F)c(-c3cccc(C(=O)NC(C)(C)c4ccccc4)c3)cc12` [Compound 30015], in data set [1], the negative logarithm of the EC50 (pEC50) is more than 7.00 and the EC50 came out at 0.0067 µM.

With `CC[C@H](NC(=O)c1cccc(-c2cc3c(C(=O)NC)c(-c4ccc(F)cc4)oc3nc2CCC(F)(F)F)c1)C1CC1` [Compound 20010], the pEC50 in data set [1] was more than 7.00.

With `CNC(=O)c1c(-c2ccc(F)cc2)oc2nc(NCC(F)(F)F)c(-c3cccc(C(=O)NC(CF)(CF)CF)c3)cc12` [Compound 30001], the pEC50 in data set [1] is more than 7.00.

Regarding `CNC(=O)c1c(-c2ccc(F)cc2)oc2nc(CCC(F)(F)F)c(-c3cccc(C(=O)NC(C)(C)C4CC4)c3)cc12` [Compound 20007], the pEC50 in data set [1] is more than 7.00.

`CNC(=O)c1c(-c2ccc(F)cc2)oc2nc(CCC(F)(F)F)c(-c3cccc(C(=O)NC(C4CC4)C4CC4)c3)cc12` [Compound 20008]: in data set [1], the pEC50 was more than 7.00.

On to `CNC(=O)c1c(-c2ccc(F)cc2)oc2nc(CCC(F)(F)F)c(-c3ccc(OC)c(C(=O)NC(CF)(CF)CF)c3)cc12` [Compound 21003], for which the negative logarithm of the EC50 (pEC50) in data set [1] is more than 7.00.

Take `CNC(=O)c1c(-c2ccc(F)cc2)oc2nc(CCC(F)(F)F)c(-c3cccc(C(=O)N[C@H](C)C4CC4)c3)cc12` [Compound 20012]: in data set [1], the negative logarithm of the EC50 (pEC50) is more than 7.00.

As to `CNC(=O)c1c(-c2ccc(F)cc2)oc2nc(CCC(F)(F)F)c(-c3cccc(C(=O)NCC4(COC)CC4)c3)cc12` [Compound 20032], the negative logarithm of the EC50 (pEC50) in data set [1] is more than 7.00.

Turning to `CNC(=O)c1c(-c2ccc(F)cc2)oc2nc(CCC(F)(F)F)c(-c3cccc(C(=O)N4CC5(CCC5C(=O)OC)C4)c3)cc12` (stereo not drawn) [Compound 20018], in data set [1], the pEC50 is 6.00 to 7.00 and the EC50 came out at 0.11 µM.

On to `CNC(=O)c1c(-c2ccc(F)cc2)oc2nc(CCC(F)(F)F)c(-c3cccc(C(=O)NC4CCOC4)c3)cc12` (stereo not drawn) [Compound 20034], for which, in data set [1], the pEC50 is more than 7.00 and the half-maximal effective concentration (EC50) is 0.0118 µM.

With `CNC(=O)c1c(-c2ccc(F)cc2)oc2nc(NCC(F)(F)F)c(-c3cccc(C(=O)NC4(C(=O)OC)CC4)c3)cc12` [Compound 30008], the pEC50 in data set [1] is more than 7.00.

Consider `CNC(=O)c1c(-c2ccc(F)cc2)oc2nc(NCC(F)(F)F)c(-c3ccc(OC)c(C(=O)NC(CF)(CF)CF)c3)cc12` [Compound 31002], for which the pEC50 in data set [1] was more than 7.00.

For the compound `CNC(=O)c1c(-c2ccc(F)cc2)oc2nc(CCC(F)(F)F)c(-c3cccc(C(=O)NC(C)(C)CF)c3)cc12` [Compound 20025], the pEC50 in data set [1] was more than 7.00.

In the case of `CNC(=O)c1c(-c2ccc(F)cc2)oc2nc(CCC(F)(F)F)c(-c3cccc(C(=O)NC(C)C(F)(F)F)c3)cc12` (stereo not drawn) [Compound 20004], the pEC50 in data set [1] was more than 7.00.

Consider `CNC(=O)c1c(-c2ccc(F)cc2)oc2nc(NCC(F)(F)C(F)(F)F)c(-c3ccc(OC)c(C(=O)NCC(C)(C)C)c3)cc12` [Compound 41002], for which the pEC50 in data set [1] was more than 7.00.

On to `CCC(NC(=O)c1cc(-c2cc3c(C(=O)NC)c(-c4ccc(F)cc4)oc3nc2CCC(F)(F)F)ccc1F)C(F)(F)F` (stereo not drawn) [Compound 22002], for which the pEC50 in data set [1] is more than 7.00.

With `CNC(=O)c1c(-c2ccc(F)cc2)oc2nc(NCC(F)(F)C(F)(F)F)c(-c3ccc(OC)c(C(=O)NC(CF)(CF)CF)c3)cc12` [Compound 41003], in data set [1], the pEC50 was more than 7.00 and the EC50 turned out to be 0.0519 µM.

For `CNC(=O)c1c(-c2ccc(F)cc2)oc2nc(NCCO)c(-c3cccc(C(=O)NC(C)(C)C(F)(F)F)c3)cc12` [Compound 42001], the pEC50 in data set [1] is more than 7.00.

Regarding `C#CC(C)(C)NC(=O)c1cccc(-c2cc3c(C(=O)NC)c(-c4ccc(F)cc4)oc3nc2CCC(F)(F)F)c1` [Compound 20003], in data set [1], the negative-log EC50 (pEC50) was more than 7.00 and the EC50 is 0.004 µM.

What is called pEC50 is the negative decadic logarithm of the EC50, by convention in mol/L. One may read the EC50 as the concentration that produces a half-maximal response.
